From publication PMC4718940, “Preclinical studies of 5-fluoro-2′-deoxycytidine and tetrahydrouridine in pediatric brain tumors” (Journal of Neuro-Oncology, 2015)
Read-outs that look alike come from different tables or passages of the source.

Experiments:
[1] = tested on: Mouse G3 MB Myc1 neurospheres; experiment: 72 h dose response, CellTiter-Glo, mouse G3 MB neurospheres; assay type: cell-based; conditions: Mus musculus, Fig. 2a, read-out: EC50
Experimental: (§1) In the Discovery Phase, the initial studies included the screen of a library of 9 compounds against epigenetic regulators at a single concentration and a dose-response on G3 MB, EP, and CPC tumor cells, as well as HEPG2 and BJ (Fig. 1). The library and dose response studies are described in the Supplementary Material.
(§2) Briefly, cells (see Supplementary Table S2 for cell identity) were plated in 384-well plates (Corning) in 30 µL of supplemented neurobasal medium by using an automated plate filler (Wellmate, Matrix). After 24 hr, 28 nL of compound was transferred via pin tool, resulting in a final drug concentration of approximately 4 nM to 10 µM. After 72 hr of treatment, CellTiter-Glo reagent (Promega) was added, and the luminescence signal was measured using an automated Envision plate reader (Perkin-Elmer). Luminescence data were normalized by log10-transformation prior to calculating the percentage of inhibition using the following equation: 100 × (negative control mean − compound value)/(negative control mean − positive control mean). Our negative control represents cells treated with 0.1% DMSO with 0% inhibition. Cells treated with 35 µM cycloheximide (G3 MB tumor spheres) or 10 µM panobinostat (EP and CPC cells) were used as positive controls with 100% inhibition. The response of cells to the compounds were normalized to that of the positive controls present in each plate screened, shown in the Y axis of the dose-response curve. […] Unless otherwise reported, the y-axis for each dose response curve in the figures was independently normalized to the range from 0 to 1 and therefore reported as ‘relative growth inhibition’. High through put assay data were analyzed by using our in-house Robust Interpretation of Screening Experiments (RISE) application that was written in Pipeline Pilot (Accelrys, v. 8.5) and R (R Development Core Team).

[2] = tested on: mouse CPC neurospheres (CPC300); experiment: 72 h dose response, CellTiter-Glo, mouse CPC neurospheres; assay type: cell-based; conditions: Mus musculus, Fig. 2a, read-out: EC50
Experimental: as §1, §2

[3] = tested on: Patient-derived xenograft of a human G3 medulloblastoma, TB-12-5950; experiment: 72 h dose response, CellTiter-Glo, human G3 MB PDX cells; assay type: cell-based; conditions: Fig. 2b
[4] = tested on: Patient-derived xenograft of a human EP; experiment: 72 h dose response, CellTiter-Glo, human EP PDX cells; assay type: cell-based; conditions: Fig. 2b
[5] = tested on: tumorspheres derived from murine G3 MB, EP, and CPC; experiment: In vitro growth inhibition, all three tumor cell types (summary); assay type: cell-based; conditions: Mus musculus, 72 hr
[6] = tested on: Trp53−/−, Cdkn2c−/− neurospheres; experiment: FdCyd growth inhibition, control neurospheres; assay type: cell-based, mouse; conditions: Fig. 2c
[7] = Plasma pharmacokinetics in non-tumor-bearing CD1 nude mice; assay type: in vivo, mouse; conditions: for AUC(0-inf): read-out: plasma exposure (AUC0-Inf), mean ± SD
Experimental: (§3) Once a drug passed the Discovery Phase it was moved to the Pre-Clinical Phase, which included PK and PD studies (Fig. 1). The details of the plasma PK and cerebral microdialysis studies are provided in the Supplemental Materials.
An initial, detailed plasma PK study was performed in non–tumor-bearing CD1 nude mice to define drug disposition in our mouse model of interest, determine the plasma systemic exposure, and when possible, to compare the systemic exposure in the mouse with that achievable in patients at clinically relevant dosages. Dosing solutions were prepared in 5% dextrose for injection at concentrations providing a standard final dosing volume of 10 mL/kg (i.e., 2.5 mg/mL FdCyd and 10 mg/mL THU). Plasma samples were separated by centrifugation and stored at −80°C until analysis using a sensitive and specific liquid chromatography–tandem mass spectrometry (LC-MS/MS) method to determine FdCyd concentrations. Plasma samples were collected by using a sparse sampling design in which 2 - 3 blood samples per mouse were collected in tubes containing zebularine (final concentration in blood sample, 1 mg/mL) to inhibit cytidine deaminase activity in vitro.
An appropriate pharmacokinetic model was fit to the observed concentration-time data obtained from the initial PK studies (IP and IV administration) by using non-linear mixed-effect modeling (NONMEM 7.2, ICON Development Solutions). Using D-optimality implemented in ADAPT 5, we use the data from the plasma pharmacokinetic study to define a pharmacokinetic limited sampling model (LSM), which will be used in subsequent microdialysis studies.

[8] = Cerebral microdialysis, tECF disposition in tumor-bearing CD1 nude mice; assay type: in vivo; conditions: mouse, tumor extracellular fluid (dialysate) vs plasma, FdCyd 6 mg/kg with THU 100 mg/kg, read-out: tECF-to-plasma partition coefficient of unbound FdCyd (Kpt,uu), mean ± SD
Experimental: as §3
Cerebral microdialysis studies were performed in CD1 nude mice orthotopically transplanted with G3 MB, EP, or CPC tumors [,2,6]. Plasma and dialysate samples collected during microdialysis studies were analyzed by using LC-MS/MS to determine drug concentrations. Data obtained from microdialysis performed in individual tumor models were analyzed separately by using a compartmental approach. A model with a tECF compartment that was linked to the plasma compartment by using efflux (CL32) and influx (CL23) clearances was fit to the plasma and tumor ECF concentration-time data. These were obtained from previous plasma PK studies in all tumor models and from each microdialysis by using separate, tumor-specific population NONMEM 7.2.
The tECF-to-plasma partition coefficient of unbound drug (Kpt,uu) was calculated as a ratio of CL23 to CL32. The mean ± SD of individual tECF-to-plasma partition coefficients of unbound FdCyd (Kpt,uu) in CD1 nude mice bearing G3 MB, EP, and CPC were 0.06 ± 0.02, 0.18 ± 0.14, and 0.09 ± 0.04, respectively. […] Inter-animal variability in Kpt,uu, however, was higher in EP tumors than in G3 MB and CPC tumors.The area under plasma concentration-time curve (AUCplasma) was calculated as the ratio of dosage to CL, whereas AUCtECF was calculated as the product of AUCplasma and Kpt,uu.

[9] = tested on: mouse G3 MB tumorspheres (Myc1, Myc2); experiment: In vitro proliferation/cell cycle, BrdU FACS; assay type: cell-based; conditions: 4 nM FdCyd alone, compared to DMSO-treated cells
Source text: (§4) See Supplementary Material for more details.
(§5) Tumors were fixed in 10% formalin.

[10] = tested on: mouse G3 MB tumorspheres (Myc1, Myc2); experiment: In vitro apoptosis, Annexin V and DAPI FACS; assay type: cell-based; conditions: 4 nM FdCyd alone, 24, 48, 72 h, compared to DMSO-treated cells
Source text: as §4, §5

CPC tumors = experiment: In vivo proliferation, Ki67 immunohistochemistry, CPC
G3 MB tumors = experiment: In vivo proliferation, Ki67 immunohistochemistry, G3 MB

EC50 [3]: 1 nM | EC50 [5]: 1 to 6 nM | FdCyd exposure in mice relative to humans ([7]; CD1 nude mice 25 mg/kg vs humans at RP2D 100 mg/m^2, human PK ref 26): approximately 4 times higher | AUC(0-inf) ([7]; CD1 nude, mouse, plasma, FdCyd 25 mg/kg with THU 100 mg/kg, IP): 112 ± 6.55 µM·h | AUC(0-inf) ([7]; CD1 nude, mouse, plasma, FdCyd 25 mg/kg with THU 100 mg/kg, IV): 114 ± 4.77 µM·h | clearance ([7]; CD1 nude, mouse, plasma, FdCyd 25 mg/kg with THU 100 mg/kg, NONMEM, IV and IP data, read-out: systemic clearance, population mean (standard error of estimation) (converted)): 15 mL/min/kg | Vd ([7]; CD1 nude, mouse, plasma, FdCyd 25 mg/kg with THU 100 mg/kg, NONMEM, IV and IP data, read-out: volume of distribution, population mean (standard error of estimation)): 0.62 L/kg | murine plasma exposure compared with RP2D in humans ([7]; IP 6 mg/kg FdCyd with 100 mg/kg THU, confirmatory PK study): comparable | Kp ([8]; mice bearing CPC): 0.09 ± 0.04 | Kp ([8]; mice bearing EP): 0.18 ± 0.14 | Kp ([8]; mice bearing G3 MB): 0.06 ± 0.02
Structure (SMILES): Nc1nc(=O)n([C@H]2C[C@H](O)[C@@H](CO)O2)cc1F [FdCyd, 5-fluoro-2′-deoxycytidine]
EC50 [1]: 1.7 nM | EC50 [2]: 5.6 nM | EC50 [4]: 8.3 nM | sensitivity to FdCyd (growth inhibition) [6]: showed sensitivity | cell cycle distribution (BrdU) [9]: increased the number of cells in the G0/G1phase | number of apoptotic cells (Annexin V) [10]: increased | Ki67 % of positive cells (CPC tumors; 3 hr after IP injection of FdCyd + THU, vehicle 59.03): 47.82% | Ki67 % of positive cells (CPC tumors; 8 hr after IP injection of FdCyd + THU, vehicle 62.25): 23.4% | Ki67 % of positive cells (CPC tumors; 24 hr after IP injection of FdCyd + THU, vehicle 53.18): 61.3% | Ki67 % of positive cells (G3 MB tumors; 3 hr after IP injection of FdCyd + THU, vehicle 87.77): 84.97% | Ki67 % of positive cells (G3 MB tumors; 8 hr after IP injection of FdCyd + THU, vehicle 78.11): 76.50% | Ki67 % of positive cells (G3 MB tumors; 24 hr after IP injection of FdCyd + THU, vehicle 85.15): 77.15%
